Data on 2 compounds can be found in patent publication US20090299056A1 (priority 2005, published 2009).

The conditions of data set [1]: solution in water containing 0.1 g per 1 ml.
Data set [2] in a line: dissolving rate. The data set is classed as physicochemical.
Data set [3] in a line: stability, expiry date. The data set is classed as physicochemical. The conditions noted are these: identified by State Food and Drug Administration.
Data set [4] deals with shigella. The conditions noted are these: cited from earlier work.
Data set [5] has as its system proteus mirabilis. The conditions noted are these: cited from earlier work.
Data set [6] concerns other enterobacteriaceae. The conditions noted are these: cited from earlier work.
The subject of data set [7] is Haemophilus influenzae. The conditions noted are these: cited from earlier work.
Data set [8] deals with bacillus anthracis. The conditions noted are these: cited from earlier work.
Data set [9] concerns streptococcus haemolytica. Conditions: cited from earlier work.
Data set [10] concerns listeria. The conditions noted are these: cited from earlier work.
Data set [11] has as its system Gram-positive coccus. The conditions noted are these: except enterococcus, methicillin-resistant staphylococcus; cited from earlier work.
In data set [12] the test system is neisseria. The conditions noted are these: cited from earlier work.
The test system of data set [13] is acinetobacter. The conditions noted are these: cited from earlier work.
Data set [14] has as its system actistaphylococcus. Conditions: cited from earlier work.
Data set [15] has as its system partial E.coli. Conditions: cited from earlier work.
Data set [16] has as its system Typhoid bacillus. The conditions noted are these: cited from earlier work.
The test system of data set [17] is Corynebacterium diphtheriae. Conditions: cited from earlier work.
Data set [18] relates to Streptococcus pneumoniae. The conditions noted are these: cited from earlier work.
The test system of data set [19] is PPNG (Penicillinase-Producing Neisseria gonorrheae). Conditions: cited from earlier work.
Data set [20] relates to klebsiella pneumoniae. Conditions: cited from earlier work.
The subject of data set [21] is P. aeruginosa. The conditions noted are these: cited from earlier work.

For `Cc1nnc(SCC2=C(C(=O)[O-])N3C(=O)[C@@H](NC(=O)Cn4cnnn4)[C@H]3SC2)s1.O.O.O.O.O.[Na+]` [cefazolin sodium pentahydrate], the pH value in data set [1] is listed as 4.8-6.3. Further, in data set [2], the dissolving rate result is on record as “rapid dissolving rate”. In addition, in data set [3], the expiry date is given as 24 months.
As to `Cc1nnc(SCC2=C(C(=O)O)N3C(=O)[C@@H](NC(=O)Cn4cnnn4)[C@H]3SC2)s1` [Cefazolin sodium], the sensitivity entry is given as “sensitive” in data set [4]; “resistant” in data set [6]; “intermediate sensitivity” in data set [7]; “very sensitive” in data set [8]; “highly sensitive” in [9]; “very sensitive” in [10]. The sensitivity result is listed as “sensitive” in data set [12]; “resistant” in [13]; “sensitive” in data set [16]; “very sensitive” in data set [17]; “highly sensitive” in data set [18]; “resistant” in data set [19]. For the same compound, the sensitivity result in data set [21] is “resistant”. Besides, the antibacterial activity entry is given as “good antibacterial activity” in data set [5]; “excellent antibacterial activity” in [11]; “low antibacterial activity” in data set [14]; “good antibacterial activity” in data set [15]; “good antibacterial activity” in [20].
